Laboratory results taken from patent US12655116B2, “Substituted isophthalic acid diamides” (Bayer Aktiengesellschaft, priority 2020, dated 2026).

Legend:
ABUTH = experiment: Pre-emergence herbicidal action against ABUTH; type: in vivo, Abutilon theophrasti
In short: (§1)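 Herbicidal effect was assessed 3 weeks after treatment by visual comparison with untreated controls, 100% denoting dead plants. Aqueous WP or EC preparations had been applied at 600 to 800 l/ha with 0.2% wetting agent to the soil covering freshly sown seeds.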

ALOMY [1] = experiment: Pre-emergence herbicidal action against ALOMY; type: in vivo, Alopecurus myosuroides
In short: as §1

AMARE [2] = experiment: Pre-emergence herbicidal action against AMARE; type: in vivo, Amaranthus retroflexus
In short: as §1

AVEFA = experiment: Pre-emergence herbicidal action against AVEFA; type: in vivo, Avena fatua
In short: as §1

ECHCG [3] = experiment: Pre-emergence herbicidal action against ECHCG; type: in vivo, Echinochloa crus-galli; details: 80 g/ha
In short: as §1

LOLRI = experiment: Pre-emergence herbicidal action against LOLRI; type: in vivo, Lolium rigidum; details: 80 g/ha
Source text: Seeds of monocotyledonous and dicotyledonous weed plants and crop plants are laid out in sandy loam soil in wood-fiber pots and covered with soil. The compounds of the invention, formulated in the form of wettable powders (WP) or as emulsion concentrates (EC), are then applied to the surface of the covering soil in the form of an aqueous suspension or emulsion at a water application rate equivalent to 600 to 800 l/ha, with addition of 0.2% wetting agent. After the treatment, the pots are placed in a greenhouse and kept under good growth conditions for the trial plants. The damage to the test plants is scored visually after a test period of 3 weeks by comparison with untreated controls (herbicidal activity in percent (%): 100% activity=the plants have died, 0% activity=like control plants). […] The tables below illustrate, in an illustrative manner, the post-emergence herbicidal action of the compounds of the invention, the herbicidal activity being stated in percent.

MATIN [4] = experiment: Pre-emergence herbicidal action against MATIN; type: in vivo, Matricaria inodora
In short: as §1

PHBPU [5] = experiment: Pre-emergence herbicidal action against PHBPU; type: in vivo, Pharbitis purpurea; details: dosage 80 g/ha
In short: as §1

SETVI [6] = experiment: Pre-emergence herbicidal action against SETVI; type: in vivo, Setaria viridis
In short: as §1

VIOTR [7] = experiment: Pre-emergence herbicidal action against VIOTR; type: in vivo, Viola tricolor
In short: as §1

DIGSA [8] = experiment: Pre-emergence herbicidal action against DIGSA; type: in vivo, Digitaria sanguinalis
In short: as §1

AMARE [9] = experiment: Post-emergence herbicidal action against AMARE; type: in vivo, Amaranthus retroflexus; details: 20 g/ha, visual assessment about 3 weeks after treatment, 100% = plants have died, 0% = like control plants
In short: (§2)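 Herbicidal effect was scored visually in percent after about 3 weeks in the greenhouse. Plants had been raised in sandy loam and treated post-emergence at the one-leaf stage with formulated compound at 600 to 800 l/ha water plus 0.2% wetting agent.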

ECHCG [10] = experiment: Post-emergence herbicidal action against ECHCG; type: in vivo, Echinochloa crus-galli
In short: as §2

PHBPU [11] = experiment: Post-emergence herbicidal action against PHBPU; type: in vivo, Pharbitis purpurea
In short: as §2

SETVI [12] = experiment: Post-emergence herbicidal action against SETVI; type: in vivo, Setaria viridis
In short: as §2

VERPE [13] = experiment: Post-emergence herbicidal action against VERPE; type: in vivo, Veronica persica; details: 20 g/ha
In short: as §2

VIOTR [14] = experiment: Post-emergence herbicidal action against VIOTR; type: in vivo, Viola tricolor
In short: as §2

DIGSA [15] = experiment: Post-emergence herbicidal action against DIGSA; type: in vivo, Digitaria sanguinalis; details: 20 g/ha
In short: as §2

VERPE [16] = experiment: Pre-emergence herbicidal action against VERPE; type: in vivo, Veronica persica; details: Veronica persica, 504 h, dosage 80 g/ha
In short: as §1

ALOMY [17] = experiment: Post-emergence herbicidal action against ALOMY; type: in vivo, Alopecurus myosuroides; details: Alopecurus myosuroides, 504 h, visual assessment about 3 weeks after treatment vs untreated controls
In short: as §2

MATIN [18] = experiment: Post-emergence herbicidal action against MATIN; type: in vivo, Matricaria inodora; details: Tripleurospermum inodorum, 504 h, dosage 20 g/ha
In short: as §2

[19] = 80 g/ha, scored visually after 3 weeks vs untreated controls (100% = plants have died, 0% = like control plants)
[20] = 20 g/ha, scored visually after 3 weeks, 100% = plants have died, 0% = like control plants

Cn1nnnc1NC(=O)c1ccc(C(F)(F)F)c(C(=O)NCC(F)F)c1Cl [Example 1-134]
100%: Pre-emergence action against ALOMY (herbicidal activity) (ALOMY [1]; 80 g/ha, pre-emergence, scored visually after 3 weeks vs untreated controls (100% = plants have died, 0% = like control plants)) | Pre-emergence action against AMARE in % (AMARE [2]; 20 g/ha, scored visually after 3 weeks vs untreated controls, 100% = plants have died, 0% = like control plants) | Pre-emergence action against AMARE in % (AMARE [2]; [19]) | Pre-emergence action against ECHCG in % (ECHCG [3]) | Pre-emergence action against MATIN in % (MATIN [4]; dosage 80 g/ha) | Pre-emergence action against SETVI in % (SETVI [6]; dosage 80 g/ha) | Pre-emergence action against VIOTR in % (VIOTR [7]; dosage 80 g/ha) | Pre-emergence action against DIGSA in % (DIGSA [8]; dosage 80 g/ha)
80%: Pre-emergence action against ALOMY (ALOMY [1]; [20]) | Pre-emergence action against AVEFA (AVEFA; [20]) | Pre-emergence action against LOLRI in % (LOLRI) | Pre-emergence action against PHBPU in % (PHBPU [5]) | Post-emergence action against PHBPU in % (PHBPU [11]; dosage 5 g/ha) | Post-emergence action against VERPE in % (VERPE [13])
90%: Pre-emergence action against ABUTH (herbicidal activity) (ABUTH; [19]) | Pre-emergence action against AVEFA in % (AVEFA; 80 g/ha, pre-emergence) | Pre-emergence action against MATIN in % (MATIN [4]; dosage 20 g/ha) | Pre-emergence action against SETVI in % (SETVI [6]; dosage 20 g/ha) | Pre-emergence action against VIOTR in % (VIOTR [7]; dosage 20 g/ha) | Pre-emergence action against DIGSA in % (DIGSA [8]; dosage 20 g/ha) | Post-emergence action at 20 g/ha against AMARE in % (AMARE [9]) | Post-emergence action against ECHCG in % (ECHCG [10]; dosage 20 g/ha) | Post-emergence action against PHBPU in % (PHBPU [11]; dosage 20 g/ha) | Post-emergence action against SETVI in % (SETVI [12]; dosage 5 g/ha) | Post-emergence action against SETVI in % (SETVI [12]; dosage 20 g/ha) | Post-emergence action against VIOTR in % (VIOTR [14]; 5 g/ha) | Post-emergence action against VIOTR in % (VIOTR [14]; 20 g/ha) | Post-emergence action against DIGSA (DIGSA [15])

CCCNC(=O)c1c(C(F)(F)F)ccc(C(=O)Nc2nnnn2C)c1Cl [Example 1-136]
80%: pest or weed control at 80 g/ha (AVEFA; Avena fatua, 504 h, 80 g/ha, pre-emergence) | pest or weed control at 80 g/ha (PHBPU [5]; Ipomoea purpurea, 504 h) | pest or weed control at 80 g/ha (SETVI [6]; Setaria viridis, 504 h, dosage 80 g/ha) | pest or weed control at 5 g/ha (ALOMY [17]; dosage 5 g/ha) | pest or weed control at 5 g/ha (ECHCG [10]; Echinochloa crus-galli, 504 h, dosage 5 g/ha) | pest or weed control at 20 g/ha (MATIN [18]) | pest or weed control at 20 g/ha (SETVI [12]; Setaria viridis, 504 h, dosage 20 g/ha)
100%: pest or weed control at 80 g/ha (ABUTH; Abutilon theophrasti, 504 h, 80 g/ha, scored visually after 3 weeks vs untreated controls (100% = plants have died, 0% = like control plants)) | pest or weed control at 20 g/ha (AMARE [2]; Amaranthus retroflexus, 504 h, 20 g/ha, scored visually after 3 weeks vs untreated controls, 100% = plants have died, 0% = like control plants) | pest or weed control at 80 g/ha (AMARE [2]; Amaranthus retroflexus, 504 h, 80 g/ha, scored visually after 3 weeks vs untreated controls, 100% = plants have died, 0% = like control plants) | pest or weed control at 80 g/ha (MATIN [4]; Tripleurospermum inodorum, 504 h, dosage 80 g/ha) | pest or weed control at 80 g/ha (VIOTR [7]; Viola tricolor, 504 h, dosage 80 g/ha) | pest or weed control at 20 g/ha (DIGSA [8]; Digitaria sanguinalis, 504 h, dosage 20 g/ha) | pest or weed control at 80 g/ha (DIGSA [8]; Digitaria sanguinalis, 504 h, dosage 80 g/ha)
90%: pest or weed control at 20 g/ha (ABUTH; Abutilon theophrasti, 504 h, dosage 20 g/ha, scored visually after 3 weeks vs untreated controls, 100% = plants have died, 0% = like control plants, read-out: Pre-emergence action against ABUTH (herbicidal activity in percent)) | pest or weed control at 80 g/ha (ALOMY [1]; Alopecurus myosuroides, 504 h, 80 g/ha, pre-emergence, scored visually after 3 weeks vs untreated controls (100% = plants have died, 0% = like control plants)) | pest or weed control at 80 g/ha (ECHCG [3]; Echinochloa crus-galli, 504 h) | pest or weed control at 80 g/ha (LOLRI; Lolium rigidum, 504 h) | pest or weed control at 20 g/ha (MATIN [4]; Tripleurospermum inodorum, 504 h, dosage 20 g/ha) | pest or weed control at 80 g/ha (VERPE [16]) | pest or weed control at 20 g/ha (VIOTR [7]; Viola tricolor, 504 h, dosage 20 g/ha) | pest or weed control at 20 g/ha (ALOMY [17]; dosage 20 g/ha) | pest or weed control at 20 g/ha (AMARE [9]; Amaranthus retroflexus, 504 h) | pest or weed control at 20 g/ha (ECHCG [10]; Echinochloa crus-galli, 504 h, dosage 20 g/ha)
